Measurements taken from the supplement of paper PMC11208160.

Test: recombinant UMI read abundance after kanamycin selection (control-corrected) (log10(CPM+1)); higher = more efficient recombination; extreme values may be limits of the assay; sequences stand for … in AGTGCAGAGAAAATCGGCCAGTTTTCTCTGCCTGCAGTCCGCATGCCGTGGGACCCCTTGGGTTCTAACCTGTTGCCTAGATTTATGCAGCGGACTGCCTTTCTCCCAAAGTGATAAACCGG…AGGTTGGTTTCACT; site = the 11-nt donor
Procedure, shortened: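 Counts of recombinant UMIs were reported as log10(CPM+1). Before that, they were converted to CPM, averaged over replicates and scaled using control-derived factors. They came from PCR across the donor–target junction after Escherichia coli carrying the pair library and target plasmid was plated on IPTG (0.07 mM) plus kanamycin, or unselected, in two replicates each.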
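Further: IS621 bridge recombinase in Escherichia coli cells against a fixed T5 target plasmid.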

| Sequence | recombinant UMI read abundance (log10) |
| --- | --- |
| CCGTTTACATGGACCGGTTTTCCCGGTAATCCGTATTTGCT (site CCGTTTACTGG) | 0 |
| CCGTTTACATGGACCGGTTTTCCCGGTAATCCGTATTTGCT (site CCGTTTACTTG) | 0 |
| CCGTTTACATGGACCGGTTTTCCCGGTAATCCGTATTTGCT (site CCGTTTCCTAG) | 0 |
| CCGTTTACATGGACCGGTTTTCCCGGTAATCCGTATTTGCT (site CCGTTTGCTAG) | 0.00881 |
| CCGTTTACATGGACCGGTTTTCCCGGTAATCCGTATTTGCT (site CCGTTTTCTAG) | 0 |
| CCGTTTACATGGACCGGTTTTCCCGGTAATCCGTATTTGCT (site CCTTTTACTAG) | 0 |
| CCGTTTACATGGACCGGTTTTCCCGGTAATCCGTATTTGCT (site CGGTTTACTAG) | 0 |
| CCGTTTACATGGACCGGTTTTCCCGGTAATCCGTATTTGCT (site CTGTTTACTAG) | 0 |
| CCGTTTACATGGACCGGTTTTCCCGGTAATCCGTATTTGCT (site GCGTTTACTAG) | 0 |
| CCGTTTACATGGACCGGTTTTCCCGGTAATCCGTATTTGCT (site TCGTTTACTAG) | 0 |
| CCGTTTCCATGGACCGGTTTTCCCGGTAATCCGTATTTGCT (site CCGTTTACTAG) | 0 |
| CCGTTTCCATGGACCGGTTTTCCCGGTAATCCGTATTTGCT (site CCGTTTCCTAG) | 0 |
| CCGTTTCCATGGACCGGTTTTCCCGGTAATCCGTATTTGCT (site CCGTTTGCTAG) | 0 |
| CCGTTTCCATGGACCGGTTTTCCCGGTAATCCGTATTTGCT (site CCGTTTTCTAG) | 0 |
| CCTAAAACATGGACCGGTTTTCCCGGTAATCCGTATTTGAT (site CCTAAAACTAT) | 0 |
| CCTAAAACATGGACCGGTTTTCCCGGTAATCCGTATTTGAT (site CCTAAACCTAT) | 0.00551 |
| CCTAAAACATGGACCGGTTTTCCCGGTAATCCGTATTTGAT (site CCTAAAGCTAT) | 0.00636 |
| CCTAAAACATGGACCGGTTTTCCCGGTAATCCGTATTTGAT (site CCTAAATCTAT) | 0 |
| CCTAAAACATGGACCGGTTTTCCCGGTAATCCGTATTTGGC (site CCTAAAACTGC) | 0 |
| CCTAAAACATGGACCGGTTTTCCCGGTAATCCGTATTTGGC (site CCTAACACTGC) | 0 |
| CCTAAAACATGGACCGGTTTTCCCGGTAATCCGTATTTGGC (site CCTAAGACTGC) | 0 |
| CCTAAAACATGGACCGGTTTTCCCGGTAATCCGTATTTGGC (site CCTAATACTGC) | 0 |
| CCTAAAGCATGGACCGGTTTTCCCGGTAATCCGTATTTGGT (site CCTAAAGCTAA) | 0.00229 |
| CCTAAAGCATGGACCGGTTTTCCCGGTAATCCGTATTTGGT (site CCTAAAGCTAC) | 0 |
| CCTAAAGCATGGACCGGTTTTCCCGGTAATCCGTATTTGGT (site CCTAAAGCTAG) | 0 |

| Sequence | recombinant UMI read abundance (log10) |
| --- | --- |
| CCTAAAGCATGGACCGGTTTTCCCGGTAATCCGTATTTGGT (site CCTAAAGCTAT) | 0 |
| CCTAATACATGGACCGGTTTTCCCGGTAATCCGTATTTGAC (site CCTAATACTGA) | 0 |
| CCTAATACATGGACCGGTTTTCCCGGTAATCCGTATTTGAC (site CCTAATACTGC) | 0 |
| CCTAATACATGGACCGGTTTTCCCGGTAATCCGTATTTGAC (site CCTAATACTGG) | 0 |
| CCTAATACATGGACCGGTTTTCCCGGTAATCCGTATTTGAC (site CCTAATACTGT) | 0 |
| CCTAATTCATGGACCGGTTTTCCCGGTAATCCGTATTTGGC (site CCTAATACTGC) | 0 |
| CCTAATTCATGGACCGGTTTTCCCGGTAATCCGTATTTGGC (site CCTAATCCTGC) | 0 |
| CCTAATTCATGGACCGGTTTTCCCGGTAATCCGTATTTGGC (site CCTAATGCTGC) | 0 |
| CCTAATTCATGGACCGGTTTTCCCGGTAATCCGTATTTGGC (site CCTAATTCTGC) | 0 |
| CCTAGAACATGGACCGGTTTTCCCGGTAATCCGTATTTGAG (site ACTAGAACTCT) | 0.00253 |
| CCTAGAACATGGACCGGTTTTCCCGGTAATCCGTATTTGAG (site CCTAGAACTCT) | 0.00591 |
| CCTAGAACATGGACCGGTTTTCCCGGTAATCCGTATTTGAG (site GCTAGAACTCT) | 0.0133 |
| CCTAGAACATGGACCGGTTTTCCCGGTAATCCGTATTTGAG (site TCTAGAACTCT) | 0.00636 |
| CCTAGAGCATGGACCGGTTTTCCCGGTAATCCGTATTTGTT (site CCTAGAGCTAA) | 0.633 |
| CCTAGGTCATGGACCGGTTTTCCCGGTAATCCGTATTTGCC (site CCTAGGTCTGG) | 0 |
| CCTAGTGCATGGACCGGTTTTCCCGGTAATCCGTATTTGGT (site ACTAGTGCTAC) | 0.00584 |
| CCTAGTGCATGGACCGGTTTTCCCGGTAATCCGTATTTGGT (site CCTAGTGCTAC) | 0.533 |
| CCTAGTGCATGGACCGGTTTTCCCGGTAATCCGTATTTGGT (site GCTAGTGCTAC) | 0.0365 |
| CCTAGTGCATGGACCGGTTTTCCCGGTAATCCGTATTTGGT (site TCTAGTGCTAC) | 0.0125 |
| CCTATATCATGGACCGGTTTTCCCGGTAATCCGTATTTGTC (site CCAATATCTGA) | 0 |
| CCTATATCATGGACCGGTTTTCCCGGTAATCCGTATTTGTC (site CCCATATCTGA) | 0.00678 |
| CCTATATCATGGACCGGTTTTCCCGGTAATCCGTATTTGTC (site CCGATATCTGA) | 0 |
| CCTATATCATGGACCGGTTTTCCCGGTAATCCGTATTTGTC (site CCTATATCTGA) | 0 |
| CCTCACACATGGACCGGTTTTCCCGGTAATCCGTATTTGTA (site CCACACACTTA) | 0 |
| CCTCACACATGGACCGGTTTTCCCGGTAATCCGTATTTGTA (site CCCCACACTTA) | 0.0116 |

| Sequence | recombinant UMI read abundance (log10) |
| --- | --- |
| CCTCACACATGGACCGGTTTTCCCGGTAATCCGTATTTGTA (site CCGCACACTTA) | 0.0283 |
| CCTCACACATGGACCGGTTTTCCCGGTAATCCGTATTTGTA (site CCTCACACTTA) | 0.166 |
| CCTCGAGCATGGACCGGTTTTCCCGGTAATCCGTATTTGTG (site CCTCGAGCTCA) | 0.234 |
| CCTCTTGCATGGACCGGTTTTCCCGGTAATCCGTATTTGAG (site CCTCTTGCTCT) | 0.0146 |
| CCTCTTTCATGGACCGGTTTTCCCGGTAATCCGTATTTGAG (site CCTCTTTCTCT) | 0.00323 |
| CCTGAAGCATGGACCGGTTTTCCCGGTAATCCGTATTTGAT (site CCTAAAGCTAT) | 0.231 |
| CCTGAAGCATGGACCGGTTTTCCCGGTAATCCGTATTTGAT (site CCTCAAGCTAT) | 0 |
| CCTGAAGCATGGACCGGTTTTCCCGGTAATCCGTATTTGAT (site CCTGAAGCTAT) | 0.209 |
| CCTGAAGCATGGACCGGTTTTCCCGGTAATCCGTATTTGAT (site CCTTAAGCTAT) | 0 |
| CCTGATACATGGACCGGTTTTCCCGGTAATCCGTATTTGGC (site CCTAATACTGC) | 0 |
| CCTGATACATGGACCGGTTTTCCCGGTAATCCGTATTTGGC (site CCTCATACTGC) | 0 |
| CCTGATACATGGACCGGTTTTCCCGGTAATCCGTATTTGGC (site CCTGATACTGC) | 0 |
| CCTGATACATGGACCGGTTTTCCCGGTAATCCGTATTTGGC (site CCTTATACTGC) | 0 |
| CCTGCACCATGGACCGGTTTTCCCGGTAATCCGTATTTGGA (site CCTGCACCTTC) | 0.00678 |
| CCTGCTACATGGACCGGTTTTCCCGGTAATCCGTATTTGCG (site CCTGCTACTCG) | 0.0136 |
| CCTGGCACATGGACCGGTTTTCCCGGTAATCCGTATTTGAA (site CCTGGCACTTT) | 0.0111 |
| CCTGGTGCATGGACCGGTTTTCCCGGTAATCCGTATTTGTA (site CCTGGTGCTTA) | 0.698 |
| CCTGTAGCATGGACCGGTTTTCCCGGTAATCCGTATTTGAG (site CCTGTAGCTCT) | 0.443 |
| CCTGTATCATGGACCGGTTTTCCCGGTAATCCGTATTTGCA (site ACAGTATCTTG) | 0 |
| CCTGTATCATGGACCGGTTTTCCCGGTAATCCGTATTTGCA (site CCTGTATCTTG) | 0 |
| CCTGTCGCATGGACCGGTTTTCCCGGTAATCCGTATTTGAG (site CCTGTCGCTCT) | 0.909 |
| CCTGTGGCATGGACCGGTTTTCCCGGTAATCCGTATTTGTA (site CCTGTGGCTTA) | 0.327 |
| CCTTAAGCATGGACCGGTTTTCCCGGTAATCCGTATTTGAT (site CCTAAAGCTAT) | 0 |
| CCTTAAGCATGGACCGGTTTTCCCGGTAATCCGTATTTGAT (site CCTCAAGCTAT) | 0.0107 |
| CCTTAAGCATGGACCGGTTTTCCCGGTAATCCGTATTTGAT (site CCTGAAGCTAT) | 0 |
